# Laboratory results from ChEMBL document CHEMBL3352808, “Anthraquinone-chalcone hybrids: synthesis, preliminary antiproliferative evaluation and DNA-interaction studies” (Eur J Med Chem, 2015).
# Active and inactive are the calls of the source. The rule behind the calls is not given here.
# How the values were obtained:
# MRC5 = assay: Cytotoxicity against human MRC5 cells assessed as reduction in cell survival after 72 hrs by MTT assay; format: cell-based; conditions: MRC5, 72 h
# [1] = Cytotoxicity against human LS174 cells assessed as reduction in cell survival after 72 hrs by MTT assay; format: functional, cell-based; conditions: LS174, 72 h
# HeLa [2] = assay: Cytotoxicity against human HeLa cells assessed as reduction in cell survival after 72 hrs by MTT assay; format: functional, cell-based
# A549 [3] = assay: Cytotoxicity against human A549 cells assessed as reduction in cell survival after 72 hrs by MTT assay; format: functional, cell-based; conditions: A549, 72 h
# Escherichia coli [4] = assay: Inhibition of Fe(2+)-induced DNA cleavage of Escherichia coli pUC19 at 1:1 compound to iron ratio by agarose gel elctrophoresis method
# HeLa [5] = assay: Induction of cell cycle arrest in human HeLa cells assessed as accumulation at G1 phase at cytotoxic IC50 level after 24 hrs by propidium iodide staining based flow cytometry (reference value: 51.33%); format: functional
# A549 [6] = assay: Induction of apoptosis in human A549 cells assessed as caspase-3 activation at cytotoxic IC50 level after 24 hrs by Western blotting method; format: functional, cell-based
# A549 [7] = assay: Induction of apoptosis in human A549 cells assessed as increase in p18 Bax level at cytotoxic IC50 level after 24 hrs by Western blotting method; format: functional, cell-based
# HeLa [8] = assay: Induction of cell cycle arrest in human HeLa cells assessed as accumulation at subG1 phase at 2 times cytotoxic IC50 level after 24 hrs by propidium iodide staining based flow cytometry (reference value: 2.53%); format: functional
# Calf thymus DNA [9] = assay: Binding affinity to calf thymus DNA assessed as hyperchromism at 20 to 60 uM by spectroscopy; format: nucleic-acid assay; conditions: Bos taurus
# Bos taurus [10] = species on record: Bos taurus; assay: Displacement of Hoechst 33258 from calf thymus DNA at 30 to 60 uM by spectroscopy
# HeLa [11] = assay: Induction of cell cycle arrest in human HeLa cells assessed as accumulation at S phase at cytotoxic IC50 level after 24 hrs by propidium iodide staining based flow cytometry (reference value: 14.5%); format: functional
# HeLa [12] = assay: Induction of apoptosis in human HeLa cells assessed as increase in p18 Bax level at cytotoxic IC50 level after 24 hrs by Western blotting method; format: functional, cell-based
# HeLa [13] = assay: Induction of apoptosis in human HeLa cells assessed as caspase-3 activation at cytotoxic IC50 level after 24 hrs by Western blotting method; format: functional, cell-based
# Bos taurus [14] = species on record: Bos taurus; assay: Displacement of ethidium bromide from calf thymus DNA at 30 to 60 uM by spectroscopy
# HeLa [15] = assay: Induction of cell cycle arrest in human HeLa cells assessed as accumulation at S phase at 2 times cytotoxic IC50 level after 24 hrs by propidium iodide staining based flow cytometry (reference value: 14.5%); format: functional
# Calf thymus DNA [16] = assay: Binding affinity to calf thymus DNA assessed as binding constant at 20 to 60 uM by spectroscopy; format: nucleic-acid assay; conditions: Bos taurus
# Escherichia coli [17] = assay: Induction of DNA cleavage of Escherichia coli pUC19 at 2 mM by agarose gel elctrophoresis method
# HeLa [18] = assay: Induction of cell cycle arrest in human HeLa cells assessed as accumulation at G2/M phase at 2 times cytotoxic IC50 level after 24 hrs by propidium iodide staining based flow cytometry (reference value: 24.77%); format: functional
# Escherichia coli [19] = assay: Inhibition of Fe(2+)-induced DNA cleavage of Escherichia coli pUC19 at 1:2 compound to iron ratio by agarose gel elctrophoresis method
# HeLa [20] = assay: Induction of cell cycle arrest in human HeLa cells assessed as accumulation at G2/M phase at cytotoxic IC50 level after 24 hrs by propidium iodide staining based flow cytometry (reference value: 24.77%); format: functional
# HeLa [21] = assay: Induction of cell cycle arrest in human HeLa cells assessed as accumulation at G1 phase at 2 times cytotoxic IC50 level after 24 hrs by propidium iodide staining based flow cytometry (reference value: 51.33%); format: functional
# Bos taurus [22] = species on record: Bos taurus; assay: Displacement of Hoechst 33258 from calf thymus DNA at 30 to 60 uM by spectroscopy relative to control
# HeLa [23] = assay: Induction of cell cycle arrest in human HeLa cells assessed as accumulation at subG1 phase at cytotoxic IC50 level after 24 hrs by propidium iodide staining based flow cytometry (reference value: 2.53%); format: functional
# HeLa [24] = assay: Induction of caspase-3 activation in human HeLa cells assessed as increase in spectrin cleavage product level at cytotoxic IC50 level after 24 hrs by Western blotting method; format: functional, cell-based
# A549 [25] = assay: Induction of caspase-3 activation in human A549 cells assessed as increase in spectrin cleavage product level at cytotoxic IC50 level after 24 hrs by Western blotting method; format: functional, cell-based
compound,measurement,setting,value
COc1ccccc1C(=O)/C=C/c1ccc(/C=C/C(=O)c2cccc3c2C(=O)c2ccccc2C3=O)cc1,IC50,MRC5,43.6 µM
same,IC50,[1],10.8 µM
same,IC50,HeLa [2],2.7 µM
same,IC50,A549 [3],28.1 µM
COc1ccc(C(=O)/C=C/c2ccc(/C=C/C(=O)c3cccc4c3C(=O)c3ccccc3C4=O)cc2)cc1,IC50,MRC5,47.4 µM
same,IC50,[1],34.1 µM
same,IC50,HeLa [2],4.96 µM
same,IC50,A549 [3],47.7 µM
O=C(/C=C/c1ccc(/C=C/C(=O)c2cccc3c2C(=O)c2ccccc2C3=O)cc1)c1ccccc1F,IC50,MRC5,31.5 µM
same,IC50,[1],17.8 µM
same,IC50,HeLa [2],2.66 µM
same,IC50,A549 [3],31.6 µM
COc1cccc(C(=O)/C=C/c2ccc(/C=C/C(=O)c3cccc4c3C(=O)c3ccccc3C4=O)cc2)c1,IC50,MRC5,46.5 µM
same,IC50,[1],16.7 µM
same,IC50,HeLa [2],2.77 µM
same,IC50,A549 [3],30.9 µM
Cc1ccc(C(=O)/C=C/c2ccc(/C=C/C(=O)c3cccc4c3C(=O)c3ccccc3C4=O)cc2)cc1,IC50,MRC5,38.5 µM
same,IC50,[1],22.6 µM
same,IC50,HeLa [2],2.64 µM
same,IC50,A549 [3],24.2 µM
Cc1cccc(C(=O)/C=C/c2ccc(/C=C/C(=O)c3cccc4c3C(=O)c3ccccc3C4=O)cc2)c1,IC50,MRC5,52 µM
same,IC50,[1],11.8 µM
same,IC50,HeLa [2],2.45 µM
same,IC50,A549 [3],33.7 µM
O=C(/C=C/c1ccc(/C=C/C(=O)c2cccc3c2C(=O)c2ccccc2C3=O)cc1)c1ccccc1,inhibition,Escherichia coli [4],Active
same,Activity,HeLa [5],37.54%
same,Activity,A549 [6],Active
same,Activity,A549 [7],inactive
same,Activity,HeLa [8],4.96%
same,Activity,Calf thymus DNA [9],Active
same,inhibition,Bos taurus [10],Dose-dependent effect
same,IC50,MRC5,33.6 µM
same,IC50,[1],4.56 µM
same,Activity,HeLa [11],17.06%
same,IC50,HeLa [2],2.41 µM
same,Activity,HeLa [12],Active
same,Activity,HeLa [13],Active
same,IC50,A549 [3],26.2 µM
same,Activity,Bos taurus [14],inactive
same,Activity,HeLa [15],23.04%
same,Kb,Calf thymus DNA [16],2.65 ×10³ /M
same,Activity,Escherichia coli [17],inactive
same,Activity,HeLa [18],34.02%
same,inhibition,Escherichia coli [19],inactive
same,Activity,HeLa [20],35.25%
same,Activity,HeLa [21],36.61%
same,Imax,Bos taurus [22],52%
same,Activity,HeLa [23],4.66%
same,Activity,HeLa [24],Active
Cc1ccccc1/C=C/C(=O)c1cccc2c1C(=O)c1ccccc1C2=O,IC50,MRC5,48.6 µM
same,IC50,[1],45.2 µM
same,IC50,HeLa [2],12.1 µM
same,IC50,A549 [3],44.6 µM
Cc1cccc(/C=C/C(=O)c2cccc3c2C(=O)c2ccccc2C3=O)c1,IC50,MRC5,33.7 µM
same,IC50,[1],21.5 µM
same,IC50,HeLa [2],11.6 µM
same,IC50,A549 [3],33 µM
Cc1ccccc1C(=O)/C=C/c1ccc(/C=C/C(=O)c2cccc3c2C(=O)c2ccccc2C3=O)cc1,Activity,HeLa [5],38.76%
same,Activity,A549 [6],Active
same,Activity,A549 [7],inactive
same,Activity,HeLa [8],7.89%
same,Activity,A549 [25],Active
same,Activity,Calf thymus DNA [9],Active
same,inhibition,Bos taurus [10],Dose-dependent effect
same,IC50,MRC5,41.9 µM
same,IC50,[1],3.13 µM
same,Activity,HeLa [11],17.29%
same,IC50,HeLa [2],2.36 µM
same,Activity,HeLa [12],Active
same,Activity,HeLa [13],Active
same,IC50,A549 [3],29.1 µM
same,Activity,Bos taurus [14],inactive
same,Activity,HeLa [15],24.44%
same,Kb,Calf thymus DNA [16],1.36 ×10³ /M
same,Activity,Escherichia coli [17],inactive
same,Activity,HeLa [18],31.12%
same,Activity,HeLa [20],32.79%
same,Activity,HeLa [21],36.75%
same,Imax,Bos taurus [22],61%
same,Activity,HeLa [23],5.56%
same,Activity,HeLa [24],Active
O=C(/C=C/c1ccc(/C=C/C(=O)c2cccc3c2C(=O)c2ccccc2C3=O)cc1)c1ccc(F)cc1,IC50,MRC5,37 µM
same,IC50,[1],10.6 µM
same,IC50,HeLa [2],2.62 µM
same,IC50,A549 [3],36.3 µM
Cc1ccc(/C=C/C(=O)c2cccc3c2C(=O)c2ccccc2C3=O)cc1,IC50,MRC5,50.5 µM
same,IC50,[1],48.2 µM
same,IC50,HeLa [2],34.1 µM
same,IC50,A549 [3],38.3 µM
O=C(/C=C/c1ccc(Cl)cc1)c1cccc2c1C(=O)c1ccccc1C2=O,IC50,MRC5,52 µM
same,IC50,[1],47.2 µM
same,IC50,HeLa [2],33.1 µM
same,IC50,A549 [3],35.3 µM
O=C(/C=C/c1ccc(/C=C/C(=O)c2cccc3c2C(=O)c2ccccc2C3=O)cc1)c1ccccc1[N+](=O)[O-],Activity,HeLa [5],41.5%
same,Activity,A549 [6],Active
same,Activity,A549 [7],inactive
same,Activity,HeLa [8],5.14%
same,Activity,A549 [25],Active
same,Activity,Calf thymus DNA [9],Active
same,inhibition,Bos taurus [10],Dose-dependent effect
same,IC50,MRC5,48.8 µM
same,IC50,[1],6.44 µM
same,Activity,HeLa [11],17.66%
same,IC50,HeLa [2],2.73 µM
same,Activity,HeLa [12],Active
same,Activity,HeLa [13],Active
same,IC50,A549 [3],28.8 µM
same,Activity,Bos taurus [14],inactive
same,Activity,HeLa [15],25.39%
same,Kb,Calf thymus DNA [16],2.51 ×10³ /M
same,Activity,Escherichia coli [17],inactive
same,Activity,HeLa [18],34.15%
same,Activity,HeLa [20],31.41%
same,Activity,HeLa [21],35.58%
same,Imax,Bos taurus [22],41%
same,Activity,HeLa [23],4.65%
same,Activity,HeLa [24],Active
O=C(/C=C/c1ccccc1)c1cccc2c1C(=O)c1ccccc1C2=O,IC50,MRC5,46.4 µM
same,IC50,[1],31.3 µM
same,IC50,HeLa [2],14.8 µM
same,IC50,A549 [3],35.5 µM
